Experiments:
[1] = test system: IL-9 induced eotaxin; assay: IL-9 induced eotaxin production in murine primary lung cultures (eotaxin ELISA); format: cell-based, mouse; conditions: 100 μM channel blocker, FVB primary lung cultures with mIL-9, FIG. 18
Description: IL-9 is known to induce eotaxin from lung epithelial cells (Dong, et.al., submitted for publication, Eur. J. Immunol.). In situ expression analysis of IL-9 transgenic mice found ICACC-1 expression to be predominant in airway epithelial cells. These epithelial cells also produce eotaxin, and eotaxin can be induced by IL-9 in these cells as well as primary lung cultures from a variety of different mouse strains. Because eotaxin and ICACC-1 are both induced by IL-9 in lung epithelial cells, it is possible that inhibiting ICACC-1 can inhibit eotaxin or other cytokines such as IL-4 or IL-13 (Doucet et al., J. Clin. Invest. 101:2129-2139, 1998.) that induce eotaxin production in lung epithelial cells. To test this hypothesis, we employed a murine primary lung assays, where lung cells were harvested from FVB/NJ mice as described in Example 5A and processed for in vitro analysis as described in Example 6 for human primary lung culture. Cells were incubated with or without 20 ng/ml recombinant mIL-9 for 48 hours. After 48 hours, conditioned supernatant was collected and analyzed for murine eotaxin production using an eotaxin ELISA kit (R&D Systems). Recombinant murine eotaxin was used to generate a standard curve. […] A culture derived from IL-9 transgenic mouse lung (TG5 lane) was used as a positive control. […]

[2] = test system: ICACC-1; assay: ICACC-1 RNA expression in lung after intratracheal IL-9 (RT-PCR); format: in vivo, mouse; conditions: C57B6 mice, 50 μl of 0.1 mg/ml IL-9 intratracheal daily for ten days, FIG. 8
Protocol: Message was analyzed by PCR as described (Nicolaides et al., 1995) and via Northern blot. Primers used to generate murine ICACC-1 message were; sense 5′-[…]-3′ (SEQ ID NO:7) (nucleotides 689-712) and antisense 5′-[…]-3′ (SEQ ID NO:8) (nucleotides 1041-1064) which produce a gene product of 376 bp. DHFR was assayed as an internal control to measure for cDNA integrity using primers previously described (Nicolaides et al., 1991). Amplification conditions used were 95° C. for 30 seconds, 58° C. for 1.5 minutes and 72° C. for 1.5 minutes for 35 cycles. For Northern blot analysis, total RNA derived from Tg5 or FVB lungs was electrophoresed on 1.5% formaldehyde gels, transferred to nylon membranes and probed with a DNA fragment comprising the murine ICACC-1 cDNA.
To confirm that the expression of IL-9 was critically related to the expression of ICACC-1 and to control for genetic background specifically, recombinant murine IL-9 was introduced into the lung of murine strain C57B6. Recombinant IL-9 was instilled into the trachea of anesthetized mice by addition of 50 μl of a 0.1 mg/ml IL-9 solution or vehicle alone (0.1% bovine serum albumin) daily for ten days. […]
Expression of ICACC-1 RNA was measured as described in Example 3.

Molecule | eotaxin production inhibited [1] | ICACC-1 RNA expression in lung (RT-PCR) [2]
O=S(=O)(O)c1cc(N=C=S)ccc1C=Cc1ccc(N=C=S)cc1S(=O)(=O)O [DIDS] | 33% | 
CC(=O)Nc1ccc(C=Cc2ccc(N=C=S)cc2S(=O)(=O)O)c(S(=O)(=O)O)c1 [SITS] | 41% | 
mIL-9: recombinant murine IL-9 (protein, UniProt P15247 19-144, looked up) Interleukin-9: QRCSTTWGIRDTNYLIENLKDDPPSKCSCSGNVTSCLCLSVPTDDCTTPCYREGLLQLTNATQKSRLLPVFHRVKRIVEVLKNITCPSFSCEKPCNQTMAGNTLSFLKSLLGTFQKTEMQRQKSRP |  | expression increased

Source: patent publication US6716603B2, “Nucleic acids encoding a chloride channel protein” (Genaera Corporation, priority 1998, dated 2004)
